Results: patent US11524951B2, “2-(2,4,5-substituted-anilino)pyrimidine compounds” (AstraZeneca AB, priority 2011, dated 2022)

Assays:
Assay type in all cases: cell-based
Exon19 deletion EGFR = molecular target: T1, Exon19 deletion EGFR (Homo sapiens, UniProt P00533, DEL746-750); experiment: Exon19 deletion EGFR (activating single mutant) cellular phosphorylation assay; settings: PC9 human lung cells (Exon 19 deletion EGFR); endogenous p-EGFR in cell lysates by ELISA; 2 h with compound; read-out: Assay 1 (IC50)
T1 construct: Assays to measure cellular phosphorylation of endogenous p-EGFR in cell lysates; endogenous in cells; host or cells: PC9 (human lung cell line)
T1 sequence (P00533 with tags, fused parts or gaps DEL746-750): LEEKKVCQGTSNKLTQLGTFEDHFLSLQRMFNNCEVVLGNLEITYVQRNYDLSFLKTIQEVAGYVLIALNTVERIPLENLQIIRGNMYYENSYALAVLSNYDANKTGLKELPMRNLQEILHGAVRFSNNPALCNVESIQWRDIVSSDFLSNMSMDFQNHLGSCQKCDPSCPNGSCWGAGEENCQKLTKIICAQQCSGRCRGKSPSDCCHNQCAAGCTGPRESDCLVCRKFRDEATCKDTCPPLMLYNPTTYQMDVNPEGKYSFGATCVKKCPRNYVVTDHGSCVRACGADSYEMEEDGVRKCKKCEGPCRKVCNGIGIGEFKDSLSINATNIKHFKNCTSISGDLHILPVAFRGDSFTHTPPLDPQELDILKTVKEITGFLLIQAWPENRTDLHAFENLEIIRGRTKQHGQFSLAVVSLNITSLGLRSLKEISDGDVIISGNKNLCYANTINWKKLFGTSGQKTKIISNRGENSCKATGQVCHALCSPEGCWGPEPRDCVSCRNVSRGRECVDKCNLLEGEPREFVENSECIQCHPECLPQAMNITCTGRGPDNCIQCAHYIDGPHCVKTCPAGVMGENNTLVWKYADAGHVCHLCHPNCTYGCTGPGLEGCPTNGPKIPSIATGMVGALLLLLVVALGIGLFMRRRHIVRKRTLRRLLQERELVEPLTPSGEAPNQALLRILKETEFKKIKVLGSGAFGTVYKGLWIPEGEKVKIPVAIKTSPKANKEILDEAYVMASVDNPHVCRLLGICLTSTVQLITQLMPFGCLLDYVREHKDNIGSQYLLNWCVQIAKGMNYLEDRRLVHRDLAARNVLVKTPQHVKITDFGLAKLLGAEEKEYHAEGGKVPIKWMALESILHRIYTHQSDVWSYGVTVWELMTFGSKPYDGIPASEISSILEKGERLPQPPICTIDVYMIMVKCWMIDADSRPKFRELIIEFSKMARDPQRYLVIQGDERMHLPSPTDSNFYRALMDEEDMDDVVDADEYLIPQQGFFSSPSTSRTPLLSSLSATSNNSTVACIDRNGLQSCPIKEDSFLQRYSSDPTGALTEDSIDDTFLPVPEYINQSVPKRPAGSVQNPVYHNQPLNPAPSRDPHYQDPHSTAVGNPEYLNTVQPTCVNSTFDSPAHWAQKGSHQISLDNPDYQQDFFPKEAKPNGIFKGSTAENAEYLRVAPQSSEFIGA
Method: Assay 1: Exon19 Deletion EGFR (Activating Single Mutant) Cellular Phosphorylation Assay
The human lung cell line PC9 (Exon 19 deletion EGFR) were obtained from the American type Culture Collection. […] Cells were grown in a humidified incubator at 37° C. with 5% CO2. Assays to measure cellular phosphorylation of endogenous p-EGFR in cell lysates were carried out according to the protocol described in the R&D Systems DuoSet IC Human Phospho-EGF R ELISA (R&D Systems catalogue number #DYC1095). 40 μL of cells were seeded (10000 cells/well) in growth medium in Corning black, clear-bottomed 384-well plates and incubated at 37° C. with 5% CO2 overnight. […] Plates were incubated for a further 2 h, then following aspiration of medium, 40 μL 1× lysis buffer was added to each well. Greiner black high bind 384-well plates were coated with capture antibody and then blocked with 3% BSA. Following removal of block, […], of lysate were transferred to the Greiner black high bind 384-well plates and incubated for 2 hours. Following aspiration and washing of the plates with PBS, 20 μL of detection antibody were added and incubated for 2 hours. […] The data obtained with each compound was exported into a suitable software package (such as Origin) to perform curve fitting analysis.

L858R/T790M EGFR = molecular target: T2, L858R/T790M EGFR (Homo sapiens, UniProt P00533, L858R/T790M); experiment: L858R/T790M EGFR (double mutant) cellular phosphorylation assay; settings: NCI-H1975 human lung cells; endogenous p-EGFR in cell lysates by ELISA; 2 h with compound
T2 construct: Assays to measure cellular phosphorylation of endogenous p-EGFR in cell lysates; endogenous in cells; host or cells: NCI-H1975 (human lung cell line)
T2 sequence (P00533 25-1210 T790M/L858R): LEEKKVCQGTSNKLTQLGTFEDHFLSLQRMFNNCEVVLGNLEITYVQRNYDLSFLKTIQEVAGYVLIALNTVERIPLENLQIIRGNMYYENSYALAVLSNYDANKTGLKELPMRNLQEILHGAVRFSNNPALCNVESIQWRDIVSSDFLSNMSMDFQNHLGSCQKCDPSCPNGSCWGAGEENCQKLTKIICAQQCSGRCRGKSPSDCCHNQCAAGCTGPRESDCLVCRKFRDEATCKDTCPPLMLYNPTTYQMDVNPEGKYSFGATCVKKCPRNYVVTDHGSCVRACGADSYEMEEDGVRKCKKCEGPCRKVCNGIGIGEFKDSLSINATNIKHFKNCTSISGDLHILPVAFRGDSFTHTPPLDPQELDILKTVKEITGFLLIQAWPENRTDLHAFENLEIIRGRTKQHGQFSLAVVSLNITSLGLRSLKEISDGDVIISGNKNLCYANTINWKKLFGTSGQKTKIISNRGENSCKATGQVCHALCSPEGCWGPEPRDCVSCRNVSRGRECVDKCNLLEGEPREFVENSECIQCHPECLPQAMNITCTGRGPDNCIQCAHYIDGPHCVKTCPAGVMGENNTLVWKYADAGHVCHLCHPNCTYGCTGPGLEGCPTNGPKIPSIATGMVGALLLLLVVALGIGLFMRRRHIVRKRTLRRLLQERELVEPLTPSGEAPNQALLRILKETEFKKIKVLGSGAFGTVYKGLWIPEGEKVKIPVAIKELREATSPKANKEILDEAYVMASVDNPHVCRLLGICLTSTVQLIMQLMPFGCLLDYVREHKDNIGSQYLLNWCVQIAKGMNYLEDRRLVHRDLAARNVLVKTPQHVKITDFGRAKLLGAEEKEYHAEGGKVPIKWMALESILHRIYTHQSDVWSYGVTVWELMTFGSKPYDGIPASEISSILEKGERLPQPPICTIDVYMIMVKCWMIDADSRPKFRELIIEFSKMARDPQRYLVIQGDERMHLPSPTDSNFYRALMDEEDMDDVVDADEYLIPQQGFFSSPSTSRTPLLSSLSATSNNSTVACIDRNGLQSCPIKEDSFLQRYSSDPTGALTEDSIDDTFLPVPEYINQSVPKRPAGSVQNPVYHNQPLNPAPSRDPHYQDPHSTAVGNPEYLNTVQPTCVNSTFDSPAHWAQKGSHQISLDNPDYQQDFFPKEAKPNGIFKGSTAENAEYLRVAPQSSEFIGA
Method: Assay 2: L858R/T790M EGFR (Double Mutant) Cellular Phosphorylation Assay
The human lung cell lines NCI-H1975 were obtained from the American type Culture Collection. […] Cells were grown in a humidified incubator at 37° C. with 5% CO2.
Assays to measure cellular phosphorylation of endogenous p-EGFR in cell lysates were carried out according to the protocol described in the R&D Systems DuoSet IC Human Phospho-EGF R ELISA (R&D Systems catalogue number #DYC1095).
40 μL of cells were seeded (10000 cells/well) in growth medium in Corning black, clear-bottomed 384-well plates and incubated at 37° C. with 5% CO2 overnight. […] Plates were incubated for a further 2 h and following aspiration of medium, 40 μL 1× lysis buffer was added to each well. Greiner black high bind 384-well plates were coated with capture antibody and then blocked with 3% BSA. Following removal of block, 15 μL of lysate were transferred to the Greiner black high bind 384-well plates and incubated for 2 hours. Following aspiration and washing of the plates with PBS, 20 μL of detection antibody were added and incubated for 2 hours. […] 20 μL QuantaBlu stop solution were added to plates and fluorescence read on an Envision plate reader using
The data obtained with each compound was exported into a suitable software package (such as Origin) to perform curve fitting analysis.

Wild-type EGFR = molecular target: T3, Wild-type EGFR (Homo sapiens, UniProt P00533); experiment: Wild-type EGFR cellular phosphorylation assay; settings: LoVo human colon cells; endogenous p-EGFR in cell lysates by ELISA; 2 h with compound, then stimulated 100 ng/ml for 10 minutes; read-out: Assay 3 (IC50)
T3 construct: Assays to measure cellular phosphorylation of endogenous p-EGFR in cell lysates; endogenous in cells; host or cells: LoVo (human colon cell line)
T3 sequence (P00533 25-1210): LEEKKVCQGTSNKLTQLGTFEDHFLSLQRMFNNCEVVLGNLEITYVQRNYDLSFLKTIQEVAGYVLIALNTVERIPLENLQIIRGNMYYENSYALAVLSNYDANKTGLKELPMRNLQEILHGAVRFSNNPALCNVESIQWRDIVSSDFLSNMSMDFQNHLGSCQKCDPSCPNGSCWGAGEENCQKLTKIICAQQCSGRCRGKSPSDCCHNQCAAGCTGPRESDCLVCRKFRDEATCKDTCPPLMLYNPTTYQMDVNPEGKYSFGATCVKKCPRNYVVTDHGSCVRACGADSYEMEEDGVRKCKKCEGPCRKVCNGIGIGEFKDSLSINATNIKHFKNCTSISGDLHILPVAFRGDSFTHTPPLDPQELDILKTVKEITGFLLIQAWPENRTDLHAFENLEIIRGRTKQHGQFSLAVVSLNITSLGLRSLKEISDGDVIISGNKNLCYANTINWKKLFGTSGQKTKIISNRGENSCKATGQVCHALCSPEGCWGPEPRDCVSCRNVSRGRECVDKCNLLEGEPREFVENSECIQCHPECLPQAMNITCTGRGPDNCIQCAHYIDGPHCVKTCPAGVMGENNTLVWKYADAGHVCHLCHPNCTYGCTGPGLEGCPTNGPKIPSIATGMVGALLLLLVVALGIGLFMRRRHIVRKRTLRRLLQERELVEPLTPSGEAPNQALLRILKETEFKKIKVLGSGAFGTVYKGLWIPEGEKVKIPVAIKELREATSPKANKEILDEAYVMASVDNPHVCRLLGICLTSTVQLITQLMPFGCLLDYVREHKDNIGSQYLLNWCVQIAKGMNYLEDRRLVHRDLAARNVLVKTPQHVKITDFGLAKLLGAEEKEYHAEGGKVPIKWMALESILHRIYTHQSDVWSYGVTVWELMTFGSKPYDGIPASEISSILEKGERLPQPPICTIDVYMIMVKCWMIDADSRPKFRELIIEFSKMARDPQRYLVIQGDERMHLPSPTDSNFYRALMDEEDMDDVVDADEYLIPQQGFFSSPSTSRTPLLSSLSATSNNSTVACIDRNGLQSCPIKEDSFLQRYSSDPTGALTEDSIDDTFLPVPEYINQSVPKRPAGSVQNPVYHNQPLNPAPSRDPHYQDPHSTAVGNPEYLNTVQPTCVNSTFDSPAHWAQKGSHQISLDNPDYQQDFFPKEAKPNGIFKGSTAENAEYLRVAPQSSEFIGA
Method: Assay 3: Wild-Type EGFR Cellular Phosphorylation Assay
The human colon cell line LoVo were obtained from the American type Culture Collection. […] Cells were grown in a humidified incubator at 37° C. with 5% CO2. Assays to measure cellular phosphorylation of endogenous p-EGFR in cell lysates were carried out according to the protocol described in the R&D Systems DuoSet IC Human Phospho-EGF R ELISA (R&D Systems catalogue number #DYC1095). 40 μL of cells were seeded (15000 cells/well) in growth medium in Corning black, clear-bottomed 384-well plates and incubated at 37° C. with 5% CO2 overnight. […] Plates were incubated for a further 2 h then stimulated with 100 ng/ml for 10 minutes and following aspiration of medium, 40 μL 1× lysis buffer was added to each well. Greiner black high bind 384-well plates were coated with capture antibody and then blocked with 3% BSA. […] Following aspiration and washing of the plates with PBS, 20 μL of detection antibody were added and incubated for 2 hours. […] The data obtained with each compound was exported into a suitable software package (such as Origin) to perform curve fitting analysis.

Structure (SMILES)	IC50 (Exon19 deletion EGFR)	IC50 (L858R/T790M EGFR)	IC50 (Wild-type EGFR)
C=CC(=O)Nc1cc(Nc2ncc(C#N)c(-c3cnn4ccccc34)n2)c(OC)cc1N(C)CCN(C)C [Example 39, N-{5-[(5-Cyano-4-pyrazolo[1,5-a]pyridin-3-ylpyrimidin-2-yl)amino]-2-[2-dimethylaminoethyl-methylamino]-4-methoxyphenyl}prop-2-enamide]	2.34 nM	1.01 nM	248 nM
C=CC(=O)Nc1cc(Nc2nccc(-c3cnn4c3CCCC4)n2)c(OC)cc1N1CC[C@@H]2CN(C)C[C@@H]21 [Example 43, N-(2-{(3aR,6aR)-5-Methyl-2,3,3a,4,6,6a-hexahydropyrrolo[3,4-b]pyrrol-1-yl}-4-methoxy-5-{[4-(4,5,6,7-tetrahydropyrazolo[1,5-a]pyridin-3-yl)pyrimidin-2-yl]amino}phenyl)prop-2-enamide]	18.2 nM	10.6 nM	1340 nM
C=CC(=O)Nc1cc(Nc2nccc(-c3c[nH]c4ccccc34)n2)c(OC)cc1N(C)CCN(C)C [Example 59, N-(2-[2-Dimethylaminoethyl-methylamino]-5-{[4-(1H-indol-3-yl)pyrimidin-2-yl]amino}-4-methoxyphenyl)prop-2-enamide]	2.27 nM	3.02 nM	28.2 nM
C=CC(=O)Nc1cc(Nc2ncc(Cl)c(-c3cnn4ccccc34)n2)c(OC)cc1N1CC2(CCCN2C)C1 [Example 8, N-{5-[(5-Chloro-4-pyrazolo[1,5-a]pyridin-3-ylpyrimidin-2-yl)amino]-4-methoxy-2-[5-methyl-2,5-diazaspiro[3.4]octan-2-yl]phenyl}prop-2-enamide]	22.4 nM	5.48 nM	1170 nM
C=CC(=O)Nc1cc(Nc2ncc(Cl)c(-c3c[nH]c4ccccc34)n2)c(OC)cc1N(C)CCN(C)C [Example 25, N-(5-{[5-Chloro-4-(1H-indol-3-yl)pyrimidin-2-yl]amino}-2-{2-dimethyl-aminoethyl-methylamino}-4-methoxyphenyl)prop-2-enamide]	0.581 nM	0.238 nM	10.9 nM
C=CC(=O)Nc1cc(Nc2ncc(C#N)c(-c3cnn4ccccc34)n2)c(OC)cc1N1CCN(C)CC1 [Example 14, N-{5-[(5-Cyano-4-pyrazolo[1,5-a]pyridin-3-ylpyrimidin-2-yl)amino]-4-methoxy-2-[4-methylpiperazin-1-yl]phenyl}prop-2-enamide]	53.3 nM	19.1 nM	12500 nM
C=CC(=O)Nc1cc(Nc2ncc(Cl)c(-c3cnn4ccccc34)n2)c(OC)cc1N(C)CCN(C)C [Example 6, N-{5-[(5-Chloro-4-pyrazolo[1,5-a]pyridin-3-ylpyrimidin-2-yl)amino]-2-[2-dimethylaminoethyl-methylamino]-4-methoxyphenyl}prop-2-enamide]	2.18 nM	0.669 nM	196 nM
C=CC(=O)Nc1cc(Nc2nccc(-c3cnn4ccccc34)n2)c(OC)cc1N(C)CCN(C)C [Example 54, N-{2-[2-Dimethylaminoethyl-methylamino]-4-methoxy-5-[(4-pyrazolo[1,5-a]pyridin-3-ylpyrimidin-2-yl)amino]phenyl}prop-2-enamide]	3.22 nM	2.8 nM	183 nM
C=CC(=O)Nc1cc(Nc2ncc(Cl)c(-c3cnn4ccccc34)n2)c(OC)cc1N(C)CCN1CCN(C)CC1 [Example 32, N-(5-{[5-Chloro-4-pyrazolo[1,5-a]pyridin-3-ylpyrimidin-2-yl]amino}-4-methoxy-2-{methyl-[2-(4-methylpiperazin-1-yl)ethyl]amino}phenyl)prop-2-enamide]	138 nM	23.8 nM	10500 nM
C=CC(=O)Nc1cc(Nc2nccc(-c3cnn4c3CCCC4)n2)c(OC)cc1N1CC[C@@H](N(C)C)C1 [Example 44, N-(2-{(3R)-3-Dimethylaminopyrrolidin-1-yl}-4-methoxy-5-{[4-(4,5,6,7-tetrahydropyrazolo[1,5-a]pyridin-3-yl)pyrimidin-2-yl]amino}phenyl)prop-2-enamide]	33.3 nM	25.6 nM	3640 nM

The remaining lines, values ahead:

IC50 (Exon19 deletion EGFR)	IC50 (L858R/T790M EGFR)	IC50 (Wild-type EGFR)	Structure (SMILES)
12.7 nM	1.6 nM	510 nM	C=CC(=O)Nc1cc(Nc2ncc(Cl)c(-c3cnn4ccccc34)n2)c(OC)cc1N1CC[C@@H](N(C)C)C1 [Example 4, N-{5-[(5-Chloro-4-pyrazolo[1,5-a]pyridin-3-ylpyrimidin-2-yl)amino]-2-[(3R)-3-dimethylaminopyrrolidin-1-yl]-4-methoxyphenyl}prop-2-enamide]
39.9 nM	31 nM	1580 nM	C=CC(=O)Nc1cc(Nc2nccc(-c3cn(C)c4ccccc34)n2)c(OC)cc1C1=CCN(C)CC1 [Example 48, N-(4-Methoxy-2-{1-methyl-3,6-dihydro-2H-pyridin-4-yl}-5-{[4-(1-methylindol-3-yl)pyrimidin-2-yl]amino}phenyl)prop-2-enamide]
8.57 nM	6.77 nM	262 nM	C=CC(=O)Nc1cc(Nc2ncc(C)c(-c3cn(C)c4ccccc34)n2)c(OC)cc1N1CC(N(C)C)C1 [Example 35, N-(2-{3-Dimethylaminoazetidin-1-yl}-4-methoxy-5-{[5-methyl-4-(1-methylindol-3-yl)pyrimidin-2-yl]amino}phenyl)prop-2-enamide]
2.11 nM	1.81 nM	48.6 nM	C=CC(=O)Nc1cc(Nc2ncc(Cl)c(-c3c[nH]c4ccccc34)n2)c(OC)cc1N1CC(N(C)C)C1 [Example 37, N-(5-{[5-Chloro-4-(1H-indol-3-yl)pyrimidin-2-yl]amino}-2-{3-dimethylaminoazetidin-1-yl}-4-methoxyphenyl)prop-2-enamide]
2.15 nM	1.46 nM	70.8 nM	C=CC(=O)Nc1cc(Nc2ncc(C)c(-c3cn(C)c4ccccc34)n2)c(OC)cc1N(C)CCN(C)C [Example 19, N-(2-{2-Dimethylaminoethyl-methylamino}-4-methoxy-5-{[5-methyl-4-(1-methylindol-3-yl)pyrimidin-2-yl]amino}phenyl)prop-2-enamide]
7.49 nM	5.28 nM	193 nM	C=CC(=O)Nc1cc(Nc2ncc(C)c(-c3cn(C)c4ccccc34)n2)c(OC)cc1N1CC[C@@H](N(C)C)C1 [Example 20, N-(2-{(3R)-3-Dimethylaminopyrrolidin-1-yl}-4-methoxy-5-{[5-methyl-4-(1-methylindol-3-yl)pyrimidin-2-yl]amino}phenyl)prop-2-enamide]
66.4 nM	31.4 nM	2700 nM	C=CC(=O)Nc1cc(Nc2ncc(C)c(-c3cn(C)c4ccccc34)n2)c(OC)cc1N1CCN(C)CC1 [Example 18, N-(4-Methoxy-5-{[5-methyl-4-(1-methylindol-3-yl)pyrimidin-2-yl]amino}-2-{4-methylpiperazin-1-yl}phenyl)prop-2-enamide]
